From patent publication US12264163B2, “Compounds and methods for treating fibrotic pathologies” (Mayo Foundation for Medical Education and Research, priority 2019, dated 2025)

Tests used:
αSMA = experiment: TGFβ-induced αSMA+ stress fiber formation in fibroblasts; format: cell-based, human; settings: TGFβ 72 hours, DHX from 48-72 hours
Experimental: Media was then exchanged for the indicated conditions for each experiment. Cells were fixed in 3.7% formalin (Sigma-Aldrich), permeabilized in 0.25% Triton X-100 (Sigma-Aldrich) and then blocked with 1% BSA for 1 h. Cells or tissue sections were incubated overnight with mouse monoclonal antibody against αSMA (Sigma-Aldrich F3777), and/or a rabbit monoclonal antibody against YAP/TAZ (Cell Signaling D24E4) diluted 1:200 in PBS with 1% BSA. Cells were then washed and exposed to flourescence-conjugated secondary antibodies (Invitrogen) diluted 1:1000 and DAPI (Thermo Fisher Scientific). Images were taken with a Cytation5 (BioTek) microscope. For scoring αSMA positive cells (FIG. 12), an observer blinded to the treatment conditions counted αSMA-positive cells using a visual threshold for bright fibrous staining; a minimum of 200 cells was counted for each condition. YAP/TAZ localization was quantified (FIGS. 6-10, 24-26, and 29-30) using Gen5 (Biotek) software. Images were taken at 4× magnification of both DAPI and YAP/TAZ staining. […] Quantification of double positive (YAP/TAZ and αSMA) cells from lung tissue sections (FIG. 17-21) was performed similarly; however separate thresholds were established for both YAP/TAZ and αSMA. A minimum of 4000 cells was quantified for each mouse.

NIH-3T3 cells = experiment: Matrix remodeling measured by atomic force microscopy; format: cell-based, mouse; settings: TGFβ + ascorbic acid 72 hours, then 10 μM DHX 72 hours
Experimental: NIH-3T3 cells plated onto gelatin-coated tissue culture plates stimulated to deposit matrix with 2 ng/mL TGFβ and 20 μM ascorbic acid for 72 hours prior to AFM microindentation analysis to measure stiffness (elastic modulus). The same dishes were then treated +/−10 μM DHX in the same media for another 72 hours and AFM analysis. The matrices were decellularized and passage 3 NHLFs were plated onto the matrices; after 24 hours RNA was collected and expression of profibrotic genes was analyzed. AFM analysis N=2. 75 indentation measurements were made for each plate. The box and whisker plots show min to max, quartile, and mean from one representative experiment (****p<0.0001 vs. 0.1% DMSO vehicle control) (++p<0.01, +p<0.05 vs. the same culture plate after the first 72 hour incubation). […]
Matrix Remodeling Measured by Atomic Force Microscopy: NIH-3T3 cells were plated to confluence onto gelatin coated (Cell Biologics) AFM compatible tissue culture dishes (Willco) in DMEM containing 10% FBS. […] Microindentations were performed using a 2.5 μm radius sphere-tipped probe (Novascan, IA, USA) with a spring constant determined at about 100 pN/nm by thermal fluctuation method. For each dish, 3 different areas were analyzed. […] The Young's modulus E was determined by the fitting of force curve by Hertz model using NanoScope Analysis software (Bruker) and considering Poisson's ratio of 0.5. […]

YAP = experiment: Western blotting of YAP serine 127 phosphorylation; format: cell-based, human; settings: IMR-90 cells, 10 μM, 2 hours
Experimental: IMR-90 cells cultured for 24 hours in media containing 0.1% FBS, treated 2 hours prior to fixation. N=3 (***p<0.001 vs. 0.1% DMSO vehicle control).
Western Blotting: Cells were plated in EMEM containing 10% FBS overnight. Media was exchanged with EMEM containing 0.1% FBS for 24 hours. Prior to protein isolation cells were treated with the indicated concentration of compounds for the indicated time. Total protein was isolated using RIPA buffer (pH 8.0) containing Pierce Phosphatase Inhibitor (Thermo) and Halt Protease Inhibitor Cocktail (Thermo). Lysate total protein concentration was determined using Pierce BCA Protein Assay Kit (Thermo) and samples were run on a 10% polyacrylamide gel. Blots were incubated overnight with primary antibodies: pYAP (Ser 127, Cell Signaling D9W21), YAP/TAZ (Cell Signaling D24E4), GAPDH (Cell Signaling 14C10), HSC70 (Santa Cruz sc-7298), αSMA (Abcam ab5694), and fibronectin (Santa Cruz sc-9068) diluted 1:1000 in Li-Cor Odyssey Blocking Buffer. Blots were washed with TBS-Tween before 60 minute incubation with IR-dye-conjugated secondary antibodies (Li-Cor) diluted 1:10,000. Plates were imaged via a Li-Cor OdysseyXL system with quantification performed via densitometry.

[1] = tested on: IPF patient derived fibroblasts; experiment: Traction force microscopy of IPF patient-derived fibroblasts; format: cell-based, human; settings: IPF fibroblasts on 6.4 kPa matrices
Experimental: Traction Force Microscopy: Traction analysis was conducted as previously described. […] IPF patient derived fibroblasts were plated on the gels overnight and treated as indicated before traction force measurements. Images of gel surface-conjugated fluorescent beads were acquired for each cell before and after trypsinization using a Nikon ECLIPSE Ti microscope at ×10 magnification. Traction forces were estimated by measuring bead displacement fields and computing corresponding traction fields using TractionsForAll (freely distributed program that calculates 2-D tractions exerted by an adherent cell on its substrate).

YAP/TAZ = YAP/TAZ nuclear localization in IMR-90 and other fibroblasts / mesenchymal cells (immunofluorescence); format: cell-based, human; settings: cells with lower DRD1 and DRD5 expression than IMR-90

Oc1cc2c(cc1O)[C@H]1c3ccccc3CN[C@@H]1CC2 (racemic) [Dihydrexidine]
TGFβ-induced myofibroblastic transition (αSMA+ stress fibers) (αSMA): reversed this transition | stiffness of cells and cell-derived matrix (AFM) (NIH-3T3 cells): significantly reduced the observed stiffness | YAP serine 127 phosphorylation (YAP): promoted YAP serine 127 phosphorylation | contractile forces (traction force microscopy) [1]: significantly and dose-dependently reduced the contractile forces | YAP/TAZ nuclear localization in mesenchymal cells derived from uterine fibroids (YAP/TAZ): marginal inhibition of YAP/TAZ nuclear localization
